From US20160108381A1, “DNA POLYMERASES AND MUTANTS THEREOF” (LIFE TECHNOLOGIES CORPORATION, priority 2001, published 2016)

Columns and labels:
[1] = target: T1, Caldicellulosiruptor sp. strain Rt69B.1 (RT69B) DNA polymerase, SEQ ID NO:19 (Caldicellulosiruptor saccharolyticus, UniProt Q6X9R7); assay: Steady-state kinetics, DNA- and RNA-dependent polymerase activity; type: biochemical; conditions: Table 40; dTTP; 72 °C
T1 sequence (Q6X9R7 with tags, fused parts or gaps): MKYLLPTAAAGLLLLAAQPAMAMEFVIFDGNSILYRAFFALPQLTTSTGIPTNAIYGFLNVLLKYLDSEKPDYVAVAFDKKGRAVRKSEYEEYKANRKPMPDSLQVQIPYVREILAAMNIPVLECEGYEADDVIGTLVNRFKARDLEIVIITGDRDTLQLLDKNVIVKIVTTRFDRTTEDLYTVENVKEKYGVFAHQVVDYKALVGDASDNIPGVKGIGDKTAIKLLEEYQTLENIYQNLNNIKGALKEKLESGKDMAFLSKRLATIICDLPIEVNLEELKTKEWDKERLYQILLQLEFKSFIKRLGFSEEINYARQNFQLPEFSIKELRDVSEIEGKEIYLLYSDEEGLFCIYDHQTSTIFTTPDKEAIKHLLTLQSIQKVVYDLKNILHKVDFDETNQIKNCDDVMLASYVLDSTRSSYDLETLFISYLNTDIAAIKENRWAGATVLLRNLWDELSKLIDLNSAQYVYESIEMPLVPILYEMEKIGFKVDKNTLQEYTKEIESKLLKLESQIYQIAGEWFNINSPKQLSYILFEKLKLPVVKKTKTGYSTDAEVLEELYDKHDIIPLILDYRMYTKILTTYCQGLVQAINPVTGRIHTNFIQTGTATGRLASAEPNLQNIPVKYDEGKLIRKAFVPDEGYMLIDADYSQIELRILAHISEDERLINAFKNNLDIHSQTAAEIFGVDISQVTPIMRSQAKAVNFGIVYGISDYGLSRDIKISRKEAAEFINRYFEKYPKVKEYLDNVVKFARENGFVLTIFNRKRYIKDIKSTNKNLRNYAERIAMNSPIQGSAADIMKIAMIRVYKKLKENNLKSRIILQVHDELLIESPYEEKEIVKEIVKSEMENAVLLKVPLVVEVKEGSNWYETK
Description: (§1) Subcloning of genes for Tok13B, Tok7B, and Rt69B. Subcloning of the genes for Tok13B, Tok7B, and Rt69B DNA polymerase was carried out to remove the pelB leader sequence derived from pET26B. This reduced proteolytic degradation of the DNA polymerases from these genes observed in E. coli when the pelB leader was present. Each DNA polymerase gene was removed from pET26B by restriction digestion of the plasmid DNA with NcoI, which cut at the 5′ end of the gene, and BamHI, which cut downstream of the translation stop codon at the 3′ end of the gene. The NcoI-BamHI fragment was ligated into the NcoI and BamHI sites of expression vector pET14B (Novagen Inc., Madison, Wis.). The recombinant plasmids were transformed into the E. coli expression host BL21-AI (Invitrogen Corporation, Carlsbad, Calif.).
(§2) Purification of CA2, B.EA1, Rt41A, Dth, Tok13B, Tok7B, and Rt69B DNA polymerase. E. coli cells (BL21SI, Invitrogen Corporation, Carlsbad, Calif.) bearing the plasmid pET26B with the gene for CA2, B.EA1, Rt41A, or Dth DNA polymerase were grown in 2.8-1 Fembach flasks in LB broth containing no salt and 50 μg/ml kanamycin at 37° C. After the culture reached an A590 of 1.2, expression of DNA polymerase was induced with 0.3 M NaCl for 3 hr. Cells were harvested by centrifugation and stored at −70° C. […]

[2] = target: T2, Caldicellulosiruptor sp. strain Tok13B.1 (Tok13B) DNA polymerase, SEQ ID NO:17 (Caldicellulosiruptor saccharolyticus, UniProt Q6X9R9); assay: as above; type: biochemical; conditions: Table 40; dTTP; 72 °C
T2 sequence (Q6X9R9 with tags, fused parts or gaps): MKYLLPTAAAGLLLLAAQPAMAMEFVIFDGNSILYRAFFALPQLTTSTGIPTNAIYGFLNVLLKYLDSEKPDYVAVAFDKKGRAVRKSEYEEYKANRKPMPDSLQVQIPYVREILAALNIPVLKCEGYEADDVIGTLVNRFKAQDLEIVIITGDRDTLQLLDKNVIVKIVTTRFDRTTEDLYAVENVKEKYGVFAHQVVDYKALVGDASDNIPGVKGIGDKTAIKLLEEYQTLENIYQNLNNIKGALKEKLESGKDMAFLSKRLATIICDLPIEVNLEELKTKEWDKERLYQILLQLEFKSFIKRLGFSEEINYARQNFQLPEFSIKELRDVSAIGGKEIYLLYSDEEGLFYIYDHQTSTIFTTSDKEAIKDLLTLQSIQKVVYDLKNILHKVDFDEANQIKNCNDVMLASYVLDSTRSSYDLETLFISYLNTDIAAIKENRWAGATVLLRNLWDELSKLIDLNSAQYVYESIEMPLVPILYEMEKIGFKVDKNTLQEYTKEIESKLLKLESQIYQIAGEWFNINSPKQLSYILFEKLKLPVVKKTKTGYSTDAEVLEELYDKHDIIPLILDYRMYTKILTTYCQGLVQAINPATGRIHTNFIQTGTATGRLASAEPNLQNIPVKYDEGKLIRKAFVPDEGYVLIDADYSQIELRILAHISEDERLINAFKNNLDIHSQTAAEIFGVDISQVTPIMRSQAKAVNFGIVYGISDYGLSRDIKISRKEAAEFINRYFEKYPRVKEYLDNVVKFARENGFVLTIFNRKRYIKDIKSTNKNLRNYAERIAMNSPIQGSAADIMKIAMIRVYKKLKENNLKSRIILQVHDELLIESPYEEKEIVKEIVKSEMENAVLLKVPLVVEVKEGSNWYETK
Description: as §1, §2

Cc1cn([C@H]2C[C@H](O)[C@@H](COP(=O)(O)OP(=O)(O)OP(=O)(O)O)O2)c(=O)[nH]c1=O [dTTP]
kCAT Ratio (RNA/DNA) [1]: 0.03 | kCAT Ratio (RNA/DNA) [2]: 0.03
